Laboratory results: ChEMBL document CHEMBL3407427, “Discovery of efficacious Pseudomonas aeruginosa-targeted siderophore-conjugated monocarbams by application of a semi-mechanistic pharmacokinetic/pharmacodynamic model” (J Med Chem, 2015)
≈ marks a conversion by molar mass, not a printed value.

Tests used:
Pseudomonas aeruginosa [1] = assay: Antimicrobial activity against Pseudomonas aeruginosa PAO1 ARC545 by broth microdilution method; type: functional
[2] = Percentage unbound in human plasma at 10 uM after 16 hrs by LC-MS/MS analysis
Pseudomonas aeruginosa [3] = assay: Inhibition of Pseudomonas aeruginosa PBP3 acylation activity by BOCILLIN FL-based assay
Pseudomonas aeruginosa [4] = assay: Antimicrobial activity against MexABCDXY-deficient Pseudomonas aeruginosa PAO1 ARC546 by broth microdilution method; type: functional
[5] = Half life in PBS buffer in pH 7.4 by UPLC analysis; type: ADME
[6] = Half life in Wistar Han rat at 1 mg/kg, iv infusion; type: ADME, organism-based; design: dose 1 mg/kg, route intravenous; settings: in vivo
[7] = Clearance in Wistar Han rat at 1 mg/kg, iv infusion; type: ADME, organism-based; design: dose 1 mg/kg, route intravenous; settings: in vivo
Acinetobacter baumannii = assay: Antimicrobial activity against Acinetobacter baumannii by broth microdilution method; type: functional
[8] = Plasma protein binding in Wistar Han rat as percentage unbound
Klebsiella pneumoniae = assay: Antimicrobial activity against Klebsiella pneumoniae by broth microdilution method; type: functional
[9] = Volume of distribution at steady state in Wistar Han rat at 1 mg/kg, iv infusion; type: ADME, organism-based; design: dose 1 mg/kg, route intravenous; settings: in vivo, read-out: Vdss
Pseudomonas aeruginosa [10] = assay: Antimicrobial activity against Pseudomonas aeruginosa by broth microdilution method; type: functional
Escherichia coli = assay: Antimicrobial activity against Escherichia coli by broth microdilution method; type: functional

| Structure (SMILES) | MIC (Pseudomonas aeruginosa [1]) [µg/mL] | fraction unbound at 16 h, 10 µM [2] | Kinact (Pseudomonas aeruginosa [3]) | MIC (Pseudomonas aeruginosa [4]) [µg/mL] | half-life [5] [h] | half-life [6] [h] | clearance [7] [mL/min/kg] | MIC90 (Acinetobacter baumannii) [µg/mL] | fraction unbound [8] | MIC90 (Klebsiella pneumoniae) [µg/mL] | Vd [9] [L/kg] | MIC90 (Pseudomonas aeruginosa [10]) [µg/mL] | MIC90 (Escherichia coli) [µg/mL] |
| --- | --- | --- | --- | --- | --- | --- | --- | --- | --- | --- | --- | --- | --- |
| C[C@H]1[C@H](NC(=O)/C(=N\OC(C)(C)C(=O)O)c2csc(N)n2)C(=O)N1C(=O)NS(=O)(=O)N1C[C@@H](NC(=O)CNC(=O)c2cc(=O)c(O)c[nH]2)CC1=O | 2 (≈ 2.65 µM) | 0.38 | 2.4 ×10⁴ /M/s | 0.25 (≈ 0.331 µM) | > 150 | – | – | – | – | – | – | – | – |
| C[C@H]1[C@H](NC(=O)/C(=N\OC(C)(C)C(=O)O)c2csc(N)n2)C(=O)N1C(=O)NS(=O)(=O)N1C[C@@H](NCc2cc(=O)c(O)c[nH]2)CC1=O | 8 (≈ 11.7 µM) | 0.4 | 5.7 ×10⁴ /M/s | 0.5 (≈ 0.731 µM) | 48 | – | – | – | – | – | – | – | – |
| C[C@H]1[C@H](NC(=O)/C(=N\OC(C)(C)C(=O)O)c2csc(N)n2)C(=O)N1C(=O)NS(=O)(=O)Nc1cc(=O)c(O)c[nH]1 | 16 (≈ 27.3 µM) | 0.23 | 1.3 ×10⁴ /M/s | 1 (≈ 1.7 µM) | 103 | – | – | – | – | – | – | – | – |
| C[C@H]1[C@H](NC(=O)/C(=N\OC(C)(C)C(=O)O)c2csc(N)n2)C(=O)N1C(=O)NS(=O)(=O)N1C[C@@H](NC(=O)c2cc(=O)c(O)c[nH]2)CC1=O | 1 (≈ 1.43 µM) | 0.24 | 1.5 ×10⁵ /M/s | < 0.06 | > 150 | 0.34 | 16 | > 64 | 0.06 | 32 (≈ 45.9 µM) | 0.44 | 2 (≈ 2.87 µM) | 32 (≈ 45.9 µM) |
| C[C@H]1[C@H](NC(=O)/C(=N\OC(C)(C)C(=O)O)c2csc(N)n2)C(=O)N1C(=O)NS(=O)(=O)N1C[C@@H](NC(=O)NCc2cc(=O)c(O)c[nH]2)CC1=O | 16 (≈ 22 µM) | 0.26 | 2.4 ×10⁴ /M/s | 1 (≈ 1.38 µM) | 30 | – | – | – | – | – | – | – | – |
| C[C@H]1[C@H](NC(=O)/C(=N\OCC(=O)O)c2csc(N)n2)C(=O)N1C(=O)NS(=O)(=O)N1C[C@@H](NC(=O)NCc2cc(=O)c(O)cn2O)CC1=O | 4 (≈ 5.6 µM) | 0.26 | 3.4 ×10³ /M/s | 0.13 (≈ 0.182 µM) | 87 | – | – | – | – | – | – | – | – |
| C[C@H]1[C@H](NC(=O)/C(=N\OC(C)(C)C(=O)O)c2csc(N)n2)C(=O)N1C(=O)NS(=O)(=O)N1C[C@@H](NC(=O)[C@H](CCS(C)(=O)=O)NC(=O)c2cc(=O)c(O)c[nH]2)CC1=O | 4 (≈ 4.65 µM) | 0.21 | 1.8 ×10⁴ /M/s | 0.25 (≈ 0.29 µM) | > 150 | – | – | – | – | – | – | – | – |
| C[C@H]1[C@H](NC(=O)/C(=N\OC(C)(C)C(=O)O)c2csc(N)n2)C(=O)N1C(=O)NS(=O)(=O)N1CCN(C(=O)c2cc(=O)c(O)c[nH]2)CC1 | 8 (≈ 11.7 µM) | 0.26 | 2.4 ×10⁴ /M/s | < 0.06 | > 150 | – | – | – | – | – | – | – | – |

Continued, values first:

| MIC (Pseudomonas aeruginosa [1]) [µg/mL] | fraction unbound at 16 h, 10 µM [2] | Kinact (Pseudomonas aeruginosa [3]) | MIC (Pseudomonas aeruginosa [4]) [µg/mL] | half-life [5] [h] | half-life [6] [h] | clearance [7] [mL/min/kg] | MIC90 (Acinetobacter baumannii) [µg/mL] | fraction unbound [8] | MIC90 (Klebsiella pneumoniae) [µg/mL] | Vd [9] [L/kg] | MIC90 (Pseudomonas aeruginosa [10]) [µg/mL] | MIC90 (Escherichia coli) [µg/mL] | Structure (SMILES) |
| --- | --- | --- | --- | --- | --- | --- | --- | --- | --- | --- | --- | --- | --- |
| 0.25 (≈ 0.302 µM) | 0.43 | 2 ×10⁵ /M/s | < 0.06 | > 150 | – | – | – | – | – | – | – | – | C[C@H]1[C@H](NC(=O)/C(=N\OC(C)(C)C(=O)O)c2csc(N)n2)C(=O)N1C(=O)NS(=O)(=O)N1C[C@@H](NC(=O)[C@H](CC(=O)O)NC(=O)c2cc(=O)c(O)cn2O)CC1=O |
| 1 (≈ 1.4 µM) | 0.14 | 2.6 ×10⁴ /M/s | < 0.06 | 38 | 0.37 | 12 | > 128 | 0.15 | 64 (≈ 89.8 µM) | 0.42 | 2 (≈ 2.81 µM) | 64 (≈ 89.8 µM) | C[C@H]1[C@H](NC(=O)/C(=N\OC(C)(C)C(=O)O)c2csc(N)n2)C(=O)N1C(=O)NS(=O)(=O)N1CCN(C(=O)c2cc(=O)c(O)c[nH]2)N(C)C1=O |
| 1 (≈ 1.23 µM) | 0.14 | 3.8 ×10⁴ /M/s | 0.5 (≈ 0.615 µM) | > 150 | – | – | – | – | – | – | – | – | C[C@H]1[C@H](NC(=O)/C(=N\OC(C)(C)C(=O)O)c2csc(N)n2)C(=O)N1C(=O)NS(=O)(=O)N1C[C@@H](NC(=O)[C@H](CC(=O)O)NC(=O)c2cc(=O)c(O)c[nH]2)CC1=O |
| 0.5 (≈ 0.673 µM) | 0.26 | 5.9 ×10⁴ /M/s | < 0.06 | 87 | 0.49 | 9 | > 128 | 0.29 | 32 (≈ 43.1 µM) | 0.29 | 2 (≈ 2.69 µM) | 16 (≈ 21.5 µM) | C[C@H]1[C@H](NC(=O)/C(=N\OC(C)(C)C(=O)O)c2csc(N)n2)C(=O)N1C(=O)NS(=O)(=O)N1C[C@@H](NC(=O)NCc2cc(=O)c(O)cn2O)CC1=O |
| 0.5 (≈ 0.717 µM) | 0.25 | 3.5 ×10⁵ /M/s | < 0.06 | > 150 | – | – | – | – | – | – | – | – | C[C@H]1[C@H](NC(=O)/C(=N\OC(C)(C)C(=O)O)c2csc(N)n2)C(=O)N1C(=O)NS(=O)(=O)N1C[C@H](NC(=O)c2cc(=O)c(O)c[nH]2)CC1=O |
